Among the test systems are Escherichia coli 1342; Klebsiella pneumoniae; Acinetobacter baumannii; Candida glabrata 0902; Aeromonas sobria 090223; Proteus mirabilis 090223; Pseudomonas aeruginosa; Salmonella typhimurium; Vibrio alginolyticus; Escherichia coli D31; Enterobacter cloacae; Haemophilus Influenzae; Klebsiella aerogenes; Staphylococcus aureus; Alcaligenes faecalis; Bacillus megaterium; Aeromonas hydrophila.

Test in all cases: ≥ marks a high value that may be exact or a test limit, other limits are often not marked, values filed in µg/mL are converted to µM
The subject of experiment [1] is Stenotrophomonas maltophilia 090223.
Experiment [2] relates to Staphylococcus aureus ATCC 2592.
Experiment [3] concerns Nocardia asteroides 090312.
Experiment [4] relates to Staphylococcus aureus 090223.
Experiment [5] deals with Enterococcus faecium 1299.
Experiment [6] deals with Candida albicans ATCC 2002.
The subject of experiment [7] is Escherichia coli ATCC 25922.
In experiment [8] the test system is Staphylococcus aureus 1349.
The subject of experiment [9] is Staphylococcus epidermidis.
For experiment [10], the system named is Staphylococcus haemolyticus.
Experiment [11] has as its system Dermacoccus nishinomiyaensis.
The subject of experiment [12] is Staphylococcus saprophyticus.
Experiment [13] has as its system Micrococcus luteus IFO 12708.
The subject of experiment [14] is Pseudomonas aeruginosa ATCC 9027.
Experiment [15] concerns Escherichia coli ATCC 28922.
The test system of experiment [16] is Citrobacter freundii ATCC 8090.

Converted amounts (≈) assume the structure as drawn. Where only a bound is given, the exact number is not on record here.

As for `CC[C@H](C)[C@@H]1NC(=O)[C@H](CC(C)C)NC(=O)[C@@H](NC(=O)[C@H](Cc2ccccc2)NC(=O)[C@H](CC(C)C)NC(=O)[C@H](CO)NC(=O)[C@@H]2CCCN2C(=O)[C@H](CC(C)C)NC(=O)[C@H](CCCN=C(N)N)NC(=O)[C@H](CCCCN)NC(=O)[C@@H](NC(=O)[C@@H](NC(=O)[C@H](C)NC(=O)CNC(=O)[C@H](CC(C)C)NC(=O)[C@H](C)NC(=O)[C@@H](N)Cc2ccccc2)C(C)C)[C@@H](C)O)CSSC[C@@H](C(=O)O)NC(=O)[C@H](CCCCN)NC(=O)[C@H](CCCN=C(N)N)NC(=O)[C@H]([C@@H](C)O)NC1=O` [FALGAVTKRLPSLFCLITRKC], the MIC is 2.01 µM (≈ 4.7 µg/mL) in [1]; 2.01 µM (≈ 4.7 µg/mL) in the experiment with Escherichia coli 1342; over 42.8 µM in the experiment on Klebsiella pneumoniae; 8.04 µM (≈ 18.8 µg/mL) in [2]; 5.69 µM (≈ 13.3 µg/mL) against Acinetobacter baumannii; 8.04 µM (≈ 18.8 µg/mL) in experiment [3]. The MIC against Candida glabrata 0902 was found to be 16 µM (≈ 37.5 µg/mL); in experiment [4], 0.984 µM (≈ 2.3 µg/mL); with Aeromonas sobria 090223 it was 4.02 µM (≈ 9.39 µg/mL); in experiment [5], 2.01 µM (≈ 4.7 µg/mL); in experiment [6] it was 0.984 µM (≈ 2.3 µg/mL); in [7], 8.04 µM (≈ 18.8 µg/mL). In addition, the MIC turned out to be 4.02 µM (≈ 9.39 µg/mL) with Proteus mirabilis 090223 and 8.04 µM (≈ 18.8 µg/mL) in [8].

As for `CC(C)C[C@H](NC(=O)[C@H](Cc1c[nH]c2ccccc12)NC(=O)[C@H](C)NC(=O)CNC(=O)[C@@H](N)CC(C)C)C(=O)N[C@@H](C)C(=O)NCC(=O)N[C@@H](CCCCN)C(=O)N[C@H](C(=O)N[C@@H](C)C(=O)NCC(=O)N[C@H](C(=O)N[C@H](C(=O)N[C@@H](C)C(=O)N[C@H](C(=O)N[C@@H](Cc1ccc(O)cc1)C(=O)N[C@@H](C)C(=O)N[C@@H](Cc1c[nH]c2ccccc12)C(=O)N[C@@H](CC(N)=O)C(=O)N[C@@H](CCCN=C(N)N)C(=O)N[C@@H](Cc1ccc(O)cc1)C(=O)N[C@H](C(N)=O)C(C)C)[C@@H](C)O)C(C)C)[C@@H](C)O)C(C)C` [LGAWLAGKVAGTVATYAWNRYV], the MIC is over 25 µM in the experiment with Pseudomonas aeruginosa; 25 µM (≈ 59.2 µg/mL) with Salmonella typhimurium; 4.24 µM (≈ 10 µg/mL) in experiment [9]; 1.13 µM (≈ 2.68 µg/mL) against Vibrio alginolyticus; 25 µM (≈ 59.2 µg/mL) against Escherichia coli D31; 4.24 µM (≈ 10 µg/mL) in experiment [10]. Besides, the MIC in the experiment with Enterobacter cloacae is 25 µM (≈ 59.2 µg/mL); in experiment [11], 0.566 µM (≈ 1.34 µg/mL); against Acinetobacter baumannii, 25 µM (≈ 59.2 µg/mL); in experiment [12] it was 4.24 µM (≈ 10 µg/mL); in the experiment with Haemophilus Influenzae, 25 µM (≈ 59.2 µg/mL); in the experiment with Klebsiella aerogenes it was 25 µM (≈ 59.2 µg/mL). Moreover, the MIC in the experiment with Staphylococcus aureus was determined as 4.24 µM (≈ 10 µg/mL); with Alcaligenes faecalis, 25 µM (≈ 59.2 µg/mL); with Bacillus megaterium, 25 µM (≈ 59.2 µg/mL); in [13], 0.566 µM (≈ 1.34 µg/mL); in the experiment on Aeromonas hydrophila, 25 µM (≈ 59.2 µg/mL).

For the compound `CC(C)C[C@H](NC(=O)[C@H](CC(C)C)NC(=O)CNC(=O)CNC(=O)CNC(=O)CNC(=O)CNC(=O)CNC(=O)CNC(=O)CNC(=O)CNC(=O)[C@H](CC(C)C)NC(=O)[C@H](CC(C)C)NC(=O)[C@@H]1CCCN1C(=O)CNC(=O)[C@H](CC(C)C)NC(=O)[C@H](CC(C)C)NC(=O)CNC(=O)CNC(=O)[C@H](CC(C)C)NC(=O)[C@H](CC(C)C)NC(=O)CN)C(=O)O` [GLLGGLLGPLLGGGGGGGGGLL], the MIC in experiment [14] was 8 µM (≈ 14.1 µg/mL); in experiment [15] it was at least 50 µM; in [16], at least 75 µM.

Source of the values: DBAASP.
